According to US10874621B2, “Cationic nanoparticles for co-delivery of nucleic acids and therapeutic agents” (The Brigham and Women's Hospital, Inc., priority 2013, dated 2020):

Test: Solubility of compound 1 in organic solvents
Assay type: physicochemical
Settings: organic solvents like DMSO and dichloromethane (DCM)

Substance: cis,cis,trans-[Pt(NH3)2Cl2(OOC(CH2)8CH3)2] [Compound 1]
- solubility in organic solvents: sufficiently soluble
